Experimental data as given in publication PMC4368200, “Triclabendazole Sulfoxide Causes Stage-Dependent Embryolethality in Zebrafish and Mouse In Vitro” (PLoS ONE, 2015).
“And” between values parts separate entries of the source, which are not always exact repeats. Equal entries are not always repeated. Where two headings read alike, the source gives them in different places. Marks after values point to notes of the source that are not given here.

Legend:
[1] = test system: rat embryos explanted at GD 9.5; assay: Postimplantation whole embryo culture (postWEC); set-up: species or system Sprague Dawley rats; key to Yolk sac circulation (median): 1 = few/abnormal vessels, 2 = delayed, 3 = complete vascularization; key to Morphological score: sum of structure scores; higher = more advanced differentiation; conditions: for Crown-rump length / Morphological score / Somites number / Yolk sac circulation (median) / Dysmorphogenic embryos: 48 h
Protocol: Nulliparous female rats, which were checked to be in the oestrus phase of the oestrous cycle, were housed with adult males (1:1) for 4 h, considering 2 h of light and 2 h of darkness. Mating was confirmed by the presence of sperm in vaginal smear, and the following 24 h were considered as gestational day 0 (GD 0).
Rat embryos were explanted and evaluated as described before with some variations. Briefly, embryos were explanted at GD 9.5 under sterile conditions. Two embryos were incorporated in flasks filled with 3.5 mL of culture medium which contained 20% of rat serum and 80% of serum mixture (Biochrom AG; Berlin, Germany). TCBZ, TCBZSO, ABZ and ABZSO were dissolved in dimethyl sulfoxide (DMSO; Sigma Aldrich Spain) and added to the culture medium to a final DMSO concentration of 0.1%. Culture flasks were oxygenated at the beginning of the culture with a gas mixture containing 12% O2 and after 38 h with a gas mixture containing 50% O2. Embryos were cultured at a temperature of 38°C, under rotation at a speed of 25 rpm (Noria R, Ovan Spain) for 48 h. After this period, embryos presenting yolk sac circulation and heartbeat were considered alive and were selected for further evaluation. The yolk sac circulation was evaluated according to the level of formation of blood vessels, giving a score of 1 in the cases in which few vessels were observed or the vascularization was abnormal, a score of 2 when a delay in vascularization was observed and 3 for complete vascularization, as previously described in [35]. Growth evaluation was assessed by crown-rump length and differentiation was evaluated by counting the number of somites and the morphological score. This score is the sum of the scores given to several embryonic structures depending on their differentiation stage, corresponding higher values with higher stages of differentiation. Furthermore, the percentage of dysmorphogenesis was calculated according to [36].
For the postWEC experiments, the selected concentrations were 140 μM, 278 μM and 556 μM for TCBZ and 267 μM, 666 μM and 932 μM for TCBZSO. The tested concentrations for ABZ analysis were 0.4 μM, 1.1 μM and 1.9 μM and for ABZSO were 3.4 μM, 9 μM, 12 μM, 14 μM and 16 μM.

zebrafish embryos [2] = assay: Zebrafish embryo test (ZFET); format: in vivo, Danio rerio; conditions: for Dysmorphogenic embryos / Morphological score: 50 hpf
Protocol: The day before the test, adult male and female zebrafish were transferred (1:1) to breeding tanks (Aquaneering, San Diego, California). Artificial plants and marbles were used as spawning substrate. Spawning and fertilization took place within 30 min after the onset of light in the morning. Eggs were collected and extensively cleaned with ISO-standard 7346 water diluted 1:5 using deionized water. Fertilized eggs were selected under a dissection stereomicroscope (Motic SMZ168, Motic China group, LTD., China). The eggs presenting overt anomalies like asymmetries, formation of vesicles or damaged membranes were discarded.
Exposure and evaluation of eggs was performed as described before with slight variations. At 2 hours post-fertilization (hpf) fertilized eggs were selected and transferred to 6-well plates (Greiner Bio-one, Germany). Ten embryos were randomly distributed into wells and filled with 5 mL of freshly prepared test solutions. TCBZ, TCBZSO, ABZ and ABZSO were dissolved in DMSO and subsequently diluted in 0.3x Danieau’s buffer to a final DMSO concentration of 0.05% (v/v). Embryos were incubated at 26 ± 1°C with a dark-light cycle of 10–14 h for 48 h. Embryolethality was determined at 8 hpf on the basis of egg coagulation, at 26 hpf by the absence of tail detachment or somites formation, and at 50 hpf by the absence of heartbeat. Developmental and teratogenic effects were assessed at 50 hpf by the total morphological score described in [32].
The working concentrations for ZFET experiments were 0.1 μM, 0.5 μM, 1 μM, 2.5 μM and 5 μM for TCBZ studies and 0.5 μM, 1 μM, 2.5 μM, 5 μM, 10 μM and 50 μM for TCBZSO. The experiments with ABZ were performed including concentrations of 0.025 μM, 0.05 μM, 0.1 μM, 0.3 μM and 0.5 μM and for ABZSO they included 1 μM, 6 μM, 12 μM, 25 μM and 50 μM.

rat whole embryo culture = test system: rat whole embryo culture; set-up: method as in PMID 22652462; conditions: ref 16; cited from earlier work
zebrafish embryos [3] = conditions: cited from earlier work
[4] = reviewed and transformed to μM by 16; cited from earlier work

## CCC[S+]([O-])c1ccc2[nH]c(NC(=O)OC)nc2c1 (stereo not shown) [ABZSO, albendazole sulfoxide]
[1]; 3.4 μM
  Crown-rump length: 3.6 ± 0.2 mm
  Morphological score: 38.5 ± 2.1
  Somites number: 26.9 ± 1.6
  Yolk sac circulation (median): 3.0
[1]; 9 µM
  Frequency of dysmorphogenesis: Branchial bars: 23.1%
  Frequency of dysmorphogenesis: Caudal part: 7.7%
  Frequency of dysmorphogenesis: Flexion: 7.7%
  Frequency of dysmorphogenesis: Heart: 7.7%
  Frequency of dysmorphogenesis: Subcutaneous blisters: 30.8%
  Frequency of dysmorphogenesis: Yolk sac: 7.7%
[1]; 9 μM
  Crown-rump length: 3.4 ± 0.3 mm
  Dysmorphogenic embryos: 30.8 ^* %
  Morphological score: 35.8 ± 5.2
  Somites number: 25.0 ± 2.8
  Yolk sac circulation (median): 3.0
[1]; 12 µM
  Frequency of dysmorphogenesis: Branchial bars: 10%
  Frequency of dysmorphogenesis: Head: 40%
  Frequency of dysmorphogenesis: Subcutaneous blisters: 40%
[1]; 12 μM
  Crown-rump length: 3.6 ± 0.2 mm
  Dysmorphogenic embryos: 40 ^* %
  Morphological score: 38.6 ± 1.2
  Somites number: 25.5 ± 2.0
  Yolk sac circulation (median): 3.0
[1]; 14 µM
  Frequency of dysmorphogenesis: Branchial bars: 63.6%
  Frequency of dysmorphogenesis: Caudal part: 36.4%
  Frequency of dysmorphogenesis: Flexion: 9.1%
  Frequency of dysmorphogenesis: Head: 36.4%
  Frequency of dysmorphogenesis: Optic vesicles: 9.1%
  Frequency of dysmorphogenesis: Otic vesicles: 36.4%
  Frequency of dysmorphogenesis: Subcutaneous blisters: 54.5%
  Frequency of dysmorphogenesis: Yolk sac: 18.2%
[1]; 14 μM
  Crown-rump length: 3.4 ± 0.2 mm
  Dysmorphogenic embryos: 72.7 ^* %
  Morphological score: 29.7 ± 6.6
  Somites number: 22.9 ± 1.6
  Yolk sac circulation (median): 2.0 ^*
[1]; 16 µM
  Frequency of dysmorphogenesis: Branchial bars: 100%
  Frequency of dysmorphogenesis: Caudal part: 72.7%
  Frequency of dysmorphogenesis: Flexion: 63.6%
  Frequency of dysmorphogenesis: Head: 72.7%
  Frequency of dysmorphogenesis: Heart: 45.5%
  Frequency of dysmorphogenesis: Limbs: 18.2%
  Frequency of dysmorphogenesis: Optic vesicles: 27.3%
  Frequency of dysmorphogenesis: Otic vesicles: 45.5%
  Frequency of dysmorphogenesis: Subcutaneous blisters: 45.5%
  Frequency of dysmorphogenesis: Yolk sac: 63.6%
[1]; 16 μM
  Crown-rump length: 3.1 ± 0.6 mm
  Dysmorphogenic embryos: 100 ^* %
  Morphological score: 21.8 ± 6.7
  Somites number: 19.3 ± 2.4
  Yolk sac circulation (median): 1.0 ^*
[1]; GD 9.5-11.5, 48 h
  postWEC LOAEC: 9 µM
Zebrafish embryos [2]; 1 μM, 2-50 hpf
  Lethality: 0%
Zebrafish embryos [2]; 1 μM
  Dysmorphogenic embryos: 0%
  Morphological score: 36.0 ± 0.0
Zebrafish embryos [2]; 6µM
  Frequency of dysmorphogenesis: Cardiac oedema: 3.3%
Zebrafish embryos [2]; 6 μM, 2-50 hpf
  Lethality: 0%
Zebrafish embryos [2]; 6 μM
  Dysmorphogenic embryos: 3.3%
  Morphological score: 35.7 ± 0.9
Zebrafish embryos [2]; 12 µM
  Frequency of dysmorphogenesis: Cardiac oedema: 10%
Zebrafish embryos [2]; 12 μM, 2-50 hpf
  Lethality: 0%
Zebrafish embryos [2]; 12 μM
  Dysmorphogenic embryos: 10%
  Morphological score: 35.5 ± 0.6
Zebrafish embryos [2]; 25µM
  Frequency of dysmorphogenesis: Brain necrosis: 100%
  Frequency of dysmorphogenesis: Cardiac oedema: 100%
  Frequency of dysmorphogenesis: Developmental delay: 100%
  Frequency of dysmorphogenesis: Eye pigmentation: 100%
  Frequency of dysmorphogenesis: Head-body pigmentation: 100%
  Frequency of dysmorphogenesis: Movement: 100%
Zebrafish embryos [2]; 25 μM, 2-50 hpf
  Lethality: 13%
Zebrafish embryos [2]; 25 μM
  Dysmorphogenic embryos: 100% and 100 ^* %
  Morphological score: 18.0 ± 0.0
Zebrafish embryos [2]; 50 μM, 2-50 hpf
  Lethality: 100% and 100 ^* %
Zebrafish embryos [2]; 2-50 hpf
  ZFET LOAEC dysmorphogenesis: 25 µM
  ZFET LOAEC lethality: 50 µM
Rat whole embryo culture
  postWEC LOAEC, in vitro literature: 17.7 [16] μM
Zebrafish embryos [3]; ref 19
  ZFET LOAEC, in vitro literature: Non observed adverse effects
Zebrafish embryos [3]; ref 20
  ZFET LOAEC, in vitro literature: 6.8 µM
[4]
  Plasma concentrations at teratogenic doses: 12.8 ([47]; reviewed and transformed to μM by [16])
